# Experimental data from article PMC9120478 (Nature Communications, 2022).
# Substitutions are numbered along the chain they refer to.
# Experiments:
# F666A mutant TRPV3 = molecular target: T1, F666A mutant TRPV3 (Mus musculus, UniProt Q8K424, F666A); experiment: Fura-2 ratiometric Ca2+ uptake, inhibition of 2-APB-evoked response; format: cell-based; settings: n = 3
# T1 construct: expressed in transfected cells; host or cells: HEK 293 S GnTI- cells (baculovirus transduction)
# T1 sequence (Q8K424 1-791 F666A): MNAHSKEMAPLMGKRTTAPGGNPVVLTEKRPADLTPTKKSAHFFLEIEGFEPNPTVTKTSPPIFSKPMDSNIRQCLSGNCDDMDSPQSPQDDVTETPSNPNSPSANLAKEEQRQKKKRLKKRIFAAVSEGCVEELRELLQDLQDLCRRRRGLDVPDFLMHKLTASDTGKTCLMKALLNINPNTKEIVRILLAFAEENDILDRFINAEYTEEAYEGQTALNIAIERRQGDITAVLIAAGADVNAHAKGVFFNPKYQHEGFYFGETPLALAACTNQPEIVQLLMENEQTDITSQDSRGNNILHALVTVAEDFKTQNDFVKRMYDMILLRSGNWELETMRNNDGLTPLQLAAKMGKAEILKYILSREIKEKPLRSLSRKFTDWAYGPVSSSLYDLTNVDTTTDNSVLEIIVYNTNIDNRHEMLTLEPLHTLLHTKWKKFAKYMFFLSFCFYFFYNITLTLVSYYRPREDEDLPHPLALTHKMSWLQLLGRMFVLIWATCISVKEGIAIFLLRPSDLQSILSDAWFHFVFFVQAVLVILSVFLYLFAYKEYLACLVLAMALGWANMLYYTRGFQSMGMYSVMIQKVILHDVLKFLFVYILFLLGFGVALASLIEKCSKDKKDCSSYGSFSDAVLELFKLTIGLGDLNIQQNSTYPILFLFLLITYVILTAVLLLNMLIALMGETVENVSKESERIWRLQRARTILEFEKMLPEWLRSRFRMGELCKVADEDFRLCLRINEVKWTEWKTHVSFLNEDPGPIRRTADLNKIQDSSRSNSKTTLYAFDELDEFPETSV
# Procedure: GFP-free C-terminally strep-tagged wild-type TRPV3, TRPV3-Y564A, TRPV3-Y594A, TRPV3-F633A, TRPV3-I663W, and TRPV3-F666A were expressed in HEK 293 S GnTI^− cells as previously described[41],[42],[53]. In short, 48 h after transduction, 1-ml aliquots of cell suspension were collected by centrifugation at 550 g for 5 min using an Eppendorf 5424 centrifuge. The cells were resuspended in the pre-warmed modified HEPES-buffered saline (HBS) containing 118 mM NaCl, 4.8 mM KCl, 1 mM MgCl2, 5 mM D-glucose, and 10 mM HEPES pH 7.4 and 5 μg/ml Fura-2 AM (Thermo Fisher Scientific) and incubated for 45 min at 37 °C. The Fura-2-loaded cells were then centrifuged for 5 min at 550 g, resuspended in the pre-warmed, modified HBS and incubated again for 30 min at 37 °C in the dark. The cells were subsequently pelleted and washed twice in the modified HBS. The washed cell pellets were kept on ice in the dark before taking an aliquot for fluorescence measurements. […] We used the lower CaCl2 concentration than before[42],[28] (2.5 mM) to minimize non-specific effects, which often appeared as a drift in the Fura-2 signal at high Ca^2+ concentration, presumably due to cell death as a result of calcium overload. Fluorescence measurements were conducted using a QuantaMaster 40 spectrofluorometer (Photon Technology International) at room temperature in a quartz cuvette under constant stirring. After 60 s since the beginning, the recording was paused and 2-APB was added. After the addition of 2-APB, the recording was continued for the additional 140 s. Changes in intracellular Ca^2+ were measured by taking the ratio of fluorescence emitted at 510 nm at the excitation wavelength of 340 nm and 380 nm. […] The data were processed using Origin 9.0 (OriginLab) software.
# TRPV3-Y564A = molecular target: T2, TRPV3-Y564A (Mus musculus, UniProt Q8K424, Y564A); experiment: as above; format: cell-based
# T2 construct: expressed in transfected cells; host or cells: HEK 293 S GnTI- cells (baculovirus transduction)
# T2 sequence (Q8K424 1-791 Y564A): T1 sequence (Q8K424 1-791 F666A) with Y564A, A666F
# Procedure: The Y564A mutation increases affinity to the TRPV3 agonist 2-APB[42] and decreases affinity to the competitive antagonist osthole.
# GFP-free C-terminally strep-tagged wild-type TRPV3, TRPV3-Y564A, TRPV3-Y594A, TRPV3-F633A, TRPV3-I663W, and TRPV3-F666A were expressed in HEK 293 S GnTI^− cells as previously described[41],[42],[53]. In short, 48 h after transduction, 1-ml aliquots of cell suspension were collected by centrifugation at 550 g for 5 min using an Eppendorf 5424 centrifuge. The cells were resuspended in the pre-warmed modified HEPES-buffered saline (HBS) containing 118 mM NaCl, 4.8 mM KCl, 1 mM MgCl2, 5 mM D-glucose, and 10 mM HEPES pH 7.4 and 5 μg/ml Fura-2 AM (Thermo Fisher Scientific) and incubated for 45 min at 37 °C. The Fura-2-loaded cells were then centrifuged for 5 min at 550 g, resuspended in the pre-warmed, modified HBS and incubated again for 30 min at 37 °C in the dark. […] The washed cell pellets were kept on ice in the dark before taking an aliquot for fluorescence measurements. […] Fluorescence measurements were conducted using a QuantaMaster 40 spectrofluorometer (Photon Technology International) at room temperature in a quartz cuvette under constant stirring. […] Changes in intracellular Ca^2+ were measured by taking the ratio of fluorescence emitted at 510 nm at the excitation wavelength of 340 nm and 380 nm. […]
smiles,measurement,setting,value
"CCCCOc1ccc(C(=O)CCN2CCCCC2)cc1 [dyclonine, 1-(4-butoxyphenyl)-3-piperidin-1-ylpropan-1-one]",IC50,"F666A mutant TRPV3; HEK 293 GnTI- cells, 200 µM 2-APB after pre-incubation with inhibitor",673 ± 37 µM
same,"nHill of inhibition curve, F666A",F666A mutant TRPV3; logistic fit,2.07 ± 0.08
same,IC50,"TRPV3-Y564A; 200 µM 2-APB, n = 4, negative control mutant",31.5 ± 1 µM
same,"nHill of inhibition curve, Y564A","TRPV3-Y564A; logistic fit, n = 4",2.33 ± 0.11
